{"source": "patent US7303752B2", "about": "“Hookworm vaccine” (The George Washington University, priority 2001, dated 2007)", "molecules": {"B1": {"name": "Ac-TMP: A. caninum putative tissue inhibitor of metalloproteinase, SEQ ID NO: 12; E. coli fusion protein (protein, listed as Ancylostoma caninum)", "chain": "MRVAIVFIACFAVAHACKCEKKPRPPLEKLLCQSQFVTHAKVTKKRIDGYFIYYDLEHKEVYKPKDRSIPIELFSWREKENCGMPDLEEGKEYLIGGKVTDYGDGDLVISVSRCDLLRNWTDVSGEEKKLLGTFKCENQS", "modifications": "E. coli fusion partner", "notes": "E. coli fusion protein"}}, "assay_type_in_all_cases": "in vivo, dog", "key": {"A. caninum [1]": {"test_system": "A. caninum", "assay": "Canine vaccine trial with Ac-TMP, Ac-AP, Ac-APR-1, oral challenge with 400 A. caninum L3", "conditions": "for % Decrease of adult hookworms in the small intestines relative to alum-injected dogs / % Increase of adult hookworms in the colons relative to alum-injected dogs: group; for adult A. caninum hookworms in the colons, Median / adult hookworms in the small intestines, Median: group median; for adult A. caninum hookworms in the colons, Median: alum control 4; for adult hookworms in the small intestines, Median: alum control 180; for ratio of adult hookworms in the small intestine relative to the colon: vaccinated group, alum-injected dogs 43.9", "text": "Study dogs and animal husbandry: Following protocol approval by The George Washington University Institutional Animal Care and Use Committee (IACUC), purpose bred, parasite naïve, male beagles 8±1 week of age were purchased, identified by ear tattoo, and maintained in the AALAC (Association for Assessment and Accreditation of Laboratory Animal Care) accredited George Washington University Animal Research Facility. The dogs were housed in a room dedicated for the study, at a room temperature of 70±4° F., with 10-15 air changes per hour comprised of 100 percent fresh air, and 12 hr light cycles alternating with 12 hr dark cycles. The airflow and timer functions were monitored daily. The dogs were fed on a diet of Teklad Certified Dog Chow #8727, supplemented with a canned soft diet in the event of anorexia. The drinking water was piped from a filter plant and delivered via automatc water system; water analysis was performed by the U.S. Army Corps of Engineers. Water from the facilities automatic system is cultured for bacteria and fungi annually. The pens were flushed daily and sanitized every two weeks. Dogs within a given study group were permitted to live together and socialize prior to the hookworm larval challenge, but were caged individually post-infection. All dogs were quarantined for approximately one week before beginning the vaccine trial. Prior to vaccination a complete blood count (CBC), serum chemistries, and a pre-vaccination serum sample were obtained.\nVaccine study design and sample size: The vaccine trial was designed to test three different antigens, each formulated with alum, as well as an alum adjuvant control. A total of 24 dogs were randomly assigned into four groups comprised of 6 dogs each. The canine sample size was selected on the ability to detect a 40-50 percent reduction in the numbers of adult hookworms in the small intestines of the vaccinated group relative to control dogs, at a statistical power of 80 percent (alpha=0.05, two-tailed). The data were derived from the mean and standard deviation of adult hookworms previously recovered from age-matched dogs infected with 400 A. caninum L3 (Hotez et al, 2002).\nRecombinant Antigens: Each group of 6 dogs was vaccinated with recombinant hookworm proteins expressed as fusion proteins either in Escherichia coli or in an insect cell line with baculovirus. Ac-AP (Cappello et al, 1995; 1996) and Ac-TMP, were expressed in E. coli as pET 28 (Novagen) fusion proteins containing a polyhistidine tag (Cappello et al, 1996). Ac-APR-1 (Harrop et al, 1996) was expressed in a baculovirus pBacPAK6 vector (Clontech), modified to contain a polyhistidine-encoding sequence and additional restriction enzyme sites (Brindley et al, 2001). Recombinant Ac-AP and Ac-TMP fusion proteins were then purified by nickel affinity chromatography, followed by a second step of purification. In the case of Ac-AP (Cappello et al, 1995; 1996), the recombinant protein was purified by mono-S (Amersham-Pharmacia) ion exchange chromatography, while Ac-TMP (Zhan et al, 2002) was purified by superdex 75 (Amersham-Pharmacia) gel filtration chromatography. Ac-APR-1 (Harrop et al, 1996) was purified by substrate affinity chromatography using pepstatin agarose (Brindley et al, 2001). The antigen stock protein concentration was determined by Pierce Micro BCA assay (Pierce Chemicals) or by the absorbance of the sample at […] using an extinction coefficient that was calculated from the deduced amino acid composition of the fusion protein. The amount of alum adsorbed protein in each dose of antigen was measured by the Pierce Micro BCA assay using a bovine serum albumin standard. The relative purity of each of the antigens relative to contaminating E. coli or insect cell proteins was determined by analysis on sodium dodecyl sulfate polyacrylamide gel electrophoresis (SDS-PAGE). […]"}, "[2]": {"test_system": "antibody to recombinant proteins", "assay": "Pre-challenge antibody titer ELISA, trial with Ac-ASP-2, Ac-API, Ac-MEP-1, Ac-APR-1 in AS03", "method": "(§1) The vaccine trial was designed to test Ac-API, Ac-ASP-2, Ac-MEP-1, Ac-APR-1 formulated with Adjuvant System 03 (AS03) obtained from GlaxoSmithKline (GSK). The rationale for selecting AS03 as an adjuvants is discussed elsewhere (Stoute et al, 1997). The ten purpose bred beagles were randomized into five arms: immunized with the adjuvant-formulated recombinant proteins or adjuvant only (control). To make six doses of antigen formulated with AS03, […] of recombinant protein (0.3 ml of antigen at a concentration of 2 mg.ml^−1) was mixed with 1.2 ml of 20 mM Tris-HCl, 0.5 M NaCl, pH 7.9 and 1.5 ml of AS03; the contents of the tube were vortex mixed for 30 seconds then shaken at low speed for 10 minutes. Dogs were immunized with 100 g of formulated antigen in a final volume of 0.5 ml. ASO3 only control was prepared as described above, with PBS included instead of antigen. Formulation of GSK adjuvants were conducted according to the protocol provided by GSK. All injections were performed intramuscularly (IM). Test and control articles were prepared on the day of injection. All animals received 4 immunizations approximately 3 weeks apart.\nBeagles were immunized with formulated Ac-ASP-2 as previously described (Loukas et al, 2004). The vaccines were administered IM three times beginning at age 62+/−4 days. Boosts were administered to the dogs at intervals of 21 days. Blood was drawn at least once every 21 days and serum was separated from cells by centrifugation. Each animal's specific antibody response was evaluated by indirect ELISA using serum taken prior to the infective challenge (Loukas et al, 2004). Recombinant Ac-ASP-2 was coated onto microtiter plates at a concentration of 5 g.ml^−1. Dog sera were titrated between 1:100 and 1:2×10^6 to determine endpoint titers. Anti-canine IgG1, IgG2 and IgE antibodies conjugated to horse-radish peroxidase (Bethyl Laboratories) were used at a dilution of 1:1,000."}, "A. caninum [3]": {"test_system": "A. caninum", "assay": "Canine vaccine trial with Ac-ASP-2, Ac-API, Ac-MEP-1, Ac-APR-1 in AS03, footpad challenge with 500 A. caninum L3", "method": "as §1, with “The ten purpose bred beagles were randomized into five arms: immunized with the adjuvant-formulated recombinant proteins or adjuvant only (control).” left out\nA. caninum larvae were cultured from eggs collected in the feces of infected dogs. All hookworms in the infective challenge were approximately equal age (17±7 days post hatching). The species identity of the infective larvae were validated using PCR. All dogs were infected by the footpad method with the same dose of 500 L3 of A. caninum (Zhan et al, 2001). Larval challenge occurred on one of three consecutive days (at age 120+/−9 days). Fourteen-sixteen days after the final immunization, dogs were anesthetized using a combination of ketamine and xylazine (20 mg.kg^−1 and 10 mg.kg^−1 respectively), and 500 A. caninum L3 in a final volume of […] were applied to the footpad."}}, "note": "Several values for one entry are separate records, joined by “and”; a condition that tells them apart may be missing. Equal values may be shown once."}
{"molecule": "Ac-APR-1: A. caninum aspartic protease (cathepsin), SEQ ID NO: 50; baculovirus expressed", "values": [{"measurement": "% Decrease of adult hookworms in the small intestines relative to alum-injected dogs", "setting": "A. caninum [1]", "value": 18, "unit": "%"}, {"measurement": "% Increase of adult hookworms in the colons relative to alum-injected dogs", "setting": "A. caninum [1]", "value": 300, "unit": "%"}, {"measurement": "adult A. caninum hookworms in the colons, Median", "setting": "A. caninum [1]", "value": 27}, {"measurement": "adult hookworms in the small intestines, Median", "setting": "A. caninum [1]", "value": 138}, {"measurement": "ratio of adult hookworms in the small intestine relative to the colon", "setting": "A. caninum [1]", "value": 7.3}, {"measurement": "antibody response, in words", "setting": "[2]; AS03", "value": "only a single dog developed a substantial antibody titer"}, {"measurement": "Pre-challenge antibody titer, IgG1, GEOMEAN", "setting": "[2]; geometric mean of group", "value": 100}, {"measurement": "Pre-challenge antibody titer, IgG2, GEOMEAN", "setting": "[2]; geometric mean of group", "value": 562}, {"measurement": "Pre-challenge antibody titer, IgG1", "setting": "[2]; individual dogs", "value": 100}, {"measurement": "Pre-challenge antibody titer, IgG2", "setting": "[2]; individual dogs", "value": "500 (3×) and 4,500 and 100"}, {"measurement": "worm burdens, Maximum", "setting": "A. caninum [3]; 5 dogs", "value": 250.00}, {"measurement": "worm burdens, Minimum", "setting": "A. caninum [3]; 5 dogs", "value": 119.00}, {"measurement": "worm burdens, Mean", "setting": "A. caninum [3]; 5 dogs, ASO3 control 203.8000", "value": 177.0000}, {"measurement": "worm burdens, Median", "setting": "A. caninum [3]; 5 dogs, ASO3 control 215.0000", "value": 168.0000}, {"measurement": "worm burden reduction in a single dog", "setting": "A. caninum [3]; dog A3 (ASP-2 group), dog D2 (APR-1 group), versus control mean", "value": 42, "unit": "%"}, {"measurement": "worm burden, Colon, Male, Average", "setting": "A. caninum [3]; group average, AS03 control 5", "value": 4}, {"measurement": "worm burden, Colon, Female, Average", "setting": "A. caninum [3]; group average, AS03 control 9", "value": 6}, {"measurement": "worm burden, Intestine, Female, Average", "setting": "A. caninum [3]; group average, AS03 control 95", "value": 79}, {"measurement": "worm burden, Intestine, Male, Average", "setting": "A. caninum [3]; group average, AS03 control 96", "value": 83}, {"measurement": "worm burden, Total, Average", "setting": "A. caninum [3]; group average, AS03 control 204", "value": 177}, {"measurement": "worm burden, Colon, Female", "setting": "A. caninum [3]; individual dogs", "value": "1 and 18 and 3 and 8 and 0"}, {"measurement": "worm burden, Colon, Male", "setting": "A. caninum [3]; individual dogs", "value": "0 (2×) and 11 and 3 and 5"}, {"measurement": "worm burden, Intestine, Female", "setting": "A. caninum [3]; individual dogs", "value": "76 and 41 and 69 and 87 and 122"}, {"measurement": "worm burden, Intestine, Male", "setting": "A. caninum [3]; individual dogs", "value": "65 and 47 and 131 and 124 and 49"}, {"measurement": "worm burden, Total", "setting": "A. caninum [3]; individual dogs", "value": "168 and 119 and 146 and 202 and 250"}, {"measurement": "fecal eggs (fecundity), in words", "setting": "A. caninum [3]; relative to the control group", "value": "significant reduction in fecal eggs"}]}
{"molecule": "B1", "values": [{"measurement": "% Decrease of adult hookworms in the small intestines relative to alum-injected dogs", "setting": "A. caninum [1]", "value": 10.8, "unit": "%"}, {"measurement": "% Increase of adult hookworms in the colons relative to alum-injected dogs", "setting": "A. caninum [1]", "value": 500, "unit": "%"}, {"measurement": "adult A. caninum hookworms in the colons, Median", "setting": "A. caninum [1]", "value": 32}, {"measurement": "adult hookworms in the small intestines, Median", "setting": "A. caninum [1]", "value": 161}, {"measurement": "ratio of adult hookworms in the small intestine relative to the colon", "setting": "A. caninum [1]", "value": 6.6}]}
